In the supplement of paper PMC10307832:

Legend:
Assay in all cases: relative viability (nuclei count vs DMSO), 5 days (fraction); higher = more cells survive
NCI-H2405 = tested on: NCI-H2405
Outline: (§1)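 Five library-drug doses in √10 steps were combined with a fixed anchor-drug dose, or a single drug was given alone, by pin tool to lung cancer cell lines in 1536-well plates the day after seeding. Nuclei were stained and counted after 5 days. Relative viability is the nuclei count in treated wells over that in vehicle wells, taken as the median of duplicate plates.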

EKVX = tested on: EKVX
Outline: as §1

RERF-LC-KJ = tested on: RERF-LC-KJ
Outline: as §1

NCI-H1734 = tested on: NCI-H1734
Outline: as §1

HCC-827 = tested on: HCC-827
Outline: as §1

PC-14 = tested on: PC-14
Outline: as §1

NCI-H520 = tested on: NCI-H520
Outline: as §1

HCC-15 = tested on: HCC-15
Outline: as §1

NCI-H2228 = tested on: NCI-H2228
Outline: as §1

NCI-H322M = tested on: NCI-H322M
Outline: as §1

LK-2 = tested on: LK-2
Outline: as §1

NCI-H1975 = tested on: NCI-H1975
Outline: as §1

LCLC-97TM1 = tested on: LCLC-97TM1
Outline: as §1

NCI-H1355 = tested on: NCI-H1355
Outline: as §1

H3255 = tested on: H3255
Outline: as §1

NCI-H1650 = tested on: NCI-H1650
Outline: as §1

CAL-12T = tested on: CAL-12T
Outline: as §1

NCI-H1755 = tested on: NCI-H1755
Outline: as §1

PC-3 [JPC-3] = tested on: PC-3 [JPC-3]
Outline: as §1

SMILES: Cc1sc2c(c1C)C(c1ccc(Cl)cc1)=N[C@@H](CC(=O)OC(C)(C)C)c1nnc(C)n1-2 [JQ1] + CC1(C)CCC(c2ccc(Cl)cc2)=C(CN2CCN(c3ccc(C(=O)NS(=O)(=O)c4ccc(N[C@H](CCN5CCOCC5)CSc5ccccc5)c(S(=O)(=O)C(F)(F)F)c4)cc3)CC2)C1 [Navitoclax] (partner 0.5 µM)
- relative viability (NCI-H2405; first compound 0.04 µM): 0.886
- relative viability (NCI-H2405; first compound 0.4 µM): 0.491
- relative viability (NCI-H2405; first compound 1.265 µM): 0.136
- relative viability (NCI-H2405; first compound 4 µM): 0.117
- relative viability (EKVX; first compound 0.04 µM): 0.945
- relative viability (EKVX; first compound 0.1265 µM): 0.827
- relative viability (EKVX; first compound 0.4 µM): 0.96
- relative viability (EKVX; first compound 1.265 µM): 0.802
- relative viability (EKVX; first compound 4 µM): 0.685
- relative viability (RERF-LC-KJ; first compound 0.04 µM): 0.867
- relative viability (RERF-LC-KJ; first compound 0.1265 µM): 1.06
- relative viability (RERF-LC-KJ; first compound 0.4 µM): 0.981
- relative viability (RERF-LC-KJ; first compound 1.265 µM): 0.275
- relative viability (RERF-LC-KJ; first compound 4 µM): 0.33
- relative viability (NCI-H1734; first compound 0.04 µM): 0.849
- relative viability (NCI-H1734; first compound 0.1265 µM): 0.825
- relative viability (NCI-H1734; first compound 0.4 µM): 0.83
- relative viability (NCI-H1734; first compound 1.265 µM): 0.407
- relative viability (NCI-H1734; first compound 4 µM): 0.233
- relative viability (HCC-827; first compound 0.04 µM): 0.95
- relative viability (HCC-827; first compound 0.4 µM): 1.14
- relative viability (HCC-827; first compound 1.265 µM): 0.94
- relative viability (HCC-827; first compound 4 µM): 0.689
- relative viability (PC-14; first compound 0.04 µM): 0.944
- relative viability (PC-14; first compound 0.1265 µM): 0.957
- relative viability (PC-14; first compound 0.4 µM): 0.937
- relative viability (PC-14; first compound 1.265 µM): 0.672
- relative viability (PC-14; first compound 4 µM): 0.303
- relative viability (NCI-H520; first compound 0.04 µM): 1.1
- relative viability (NCI-H520; first compound 0.1265 µM): 1.19
- relative viability (NCI-H520; first compound 0.4 µM): 0.905
- relative viability (NCI-H520; first compound 1.265 µM): 0.404
- relative viability (NCI-H520; first compound 4 µM): 0.297
- relative viability (HCC-15; first compound 0.04 µM): 0.692
- relative viability (HCC-15; first compound 0.4 µM): 0.532
- relative viability (HCC-15; first compound 1.265 µM): 0.331
- relative viability (HCC-15; first compound 4 µM): 0.299
- relative viability (NCI-H2228; first compound 0.04 µM): 1.13
- relative viability (NCI-H2228; first compound 0.1265 µM): 0.671
- relative viability (NCI-H2228; first compound 0.4 µM): 0.667
- relative viability (NCI-H2228; first compound 1.265 µM): 0.557
- relative viability (NCI-H2228; first compound 4 µM): 0.308
- relative viability (NCI-H322M; first compound 0.04 µM): 1.09
- relative viability (NCI-H322M; first compound 0.1265 µM): 1.11
- relative viability (NCI-H322M; first compound 0.4 µM): 1.1
- relative viability (NCI-H322M; first compound 1.265 µM): 0.692
- relative viability (NCI-H322M; first compound 4 µM): 0.608
- relative viability (LK-2; first compound 0.04 µM): 0.89
- relative viability (LK-2; first compound 0.1265 µM): 0.785
- relative viability (LK-2; first compound 0.4 µM): 0.562
- relative viability (LK-2; first compound 1.265 µM): 0.255
- relative viability (LK-2; first compound 4 µM): 0.243
- relative viability (NCI-H1975; first compound 0.04 µM): 1.1
- relative viability (NCI-H1975; first compound 0.1265 µM): 0.715
- relative viability (NCI-H1975; first compound 0.4 µM): 0.821
- relative viability (NCI-H1975; first compound 1.265 µM): 0.336
- relative viability (NCI-H1975; first compound 4 µM): 0.266
- relative viability (LCLC-97TM1; first compound 0.1265 µM): 0.329
- relative viability (LCLC-97TM1; first compound 0.4 µM): 0.403
- relative viability (LCLC-97TM1; first compound 1.265 µM): 0.175
- relative viability (LCLC-97TM1; first compound 4 µM): 0.152
- relative viability (NCI-H1355; first compound 0.04 µM): 0.87
- relative viability (NCI-H1355; first compound 0.1265 µM): 0.972
- relative viability (NCI-H1355; first compound 0.4 µM): 0.85
- relative viability (NCI-H1355; first compound 1.265 µM): 0.52
- relative viability (NCI-H1355; first compound 4 µM): 0.476
- relative viability (H3255; first compound 0.04 µM): 0.495
- relative viability (H3255; first compound 0.1265 µM): 0.441
- relative viability (H3255; first compound 0.4 µM): 0.566
- relative viability (H3255; first compound 1.265 µM): 0.268
- relative viability (H3255; first compound 4 µM): 0.258
- relative viability (NCI-H1650; first compound 0.04 µM): 1.09
- relative viability (NCI-H1650; first compound 0.1265 µM): 0.998
- relative viability (NCI-H1650; first compound 0.4 µM): 0.655
- relative viability (NCI-H1650; first compound 1.265 µM): 0.24
- relative viability (NCI-H1650; first compound 4 µM): 0.169
- relative viability (CAL-12T; first compound 0.04 µM): 1.12
- relative viability (CAL-12T; first compound 0.1265 µM): 1.29
- relative viability (CAL-12T; first compound 0.4 µM): 0.701
- relative viability (CAL-12T; first compound 1.265 µM): 0.295
- relative viability (CAL-12T; first compound 4 µM): 0.408
- relative viability (NCI-H1755; first compound 0.04 µM): 1.01
- relative viability (NCI-H1755; first compound 0.1265 µM): 0.991
- relative viability (NCI-H1755; first compound 0.4 µM): 0.922
- relative viability (NCI-H1755; first compound 1.265 µM): 0.59
- relative viability (NCI-H1755; first compound 4 µM): 0.455
- relative viability (PC-3 [JPC-3]; first compound 0.04 µM): 0.781
- relative viability (PC-3 [JPC-3]; first compound 0.1265 µM): 0.877
- relative viability (PC-3 [JPC-3]; first compound 0.4 µM): 0.942
- relative viability (PC-3 [JPC-3]; first compound 1.265 µM): 0.644
- relative viability (PC-3 [JPC-3]; first compound 4 µM): 0.499
